Patent US6265423A, “Aromatic polycyclic retinoid-type derivatives, method for preparing same, and use thereof for making pharmaceutical and cosmetic compositions” (priority 1996, dated 2001)
“Also recorded” adds a separate entry of the source.

Legend:
RAR and RXR receptors = experiment: RAR/RXR activity profile drawn from the models; format: cell-based
Source text: The reference molecules have allowed one to show the effectiveness and the complementary nature of the different models used and lead to the following conclusions: chimerical constructions GAL-RAR and RAR-ERcassette allow the determination of the RAR agonist profile of molecules, but also an RXR agonist activity with RAR-ERcassette, the HRLN lineage mainly conveys the activity of a compound mediated by endogenic RARα, the HRL+N lineage also provides evidence of an RXR agonist activity of the retinoids, the anti-oestrogenic effect of the retinoids (oestrogen-induced cellular proliferation and MELN lineage) is mediated by RARα, the anti-AP-1 effect is mediated in the MCF-7 cells (MTLN lineage) by RARα, RARγ and RXRα, and an additive effect exists between the RAR and RXR routes.

RARβ-ERcassette = experiment: Transactivation, chimerical receptor RARβ-ERcassette (HeLa); format: cell-based; conditions: TTNPB 10^-8 M = 100
Outline: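 First, HeLa cells receive the chimeric RAR construct, whose native DNA-binding domain is exchanged for the oestrogen receptor's, plus an ERE-luciferase reporter and β-galactosidase control, by calcium phosphate co-precipitation. After 24 h, cells are incubated with effectors for 16 h before luciferase measurement.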

[1] = test system: RARE, endogenic RAR and RXR receptors, HRL+N lineage; experiment: HRL+N transactivation (RARE-luciferase, stably transfected HeLa); format: cell-based
Procedure: MCF-7 cells and HeLa are cultivated in DMFM with phenol red to which 5% foetal calf serum is added. The T47-D cells are cultivated in RPMI to which 10% foetal calf serum is added. The experimental tests are carried out in DMEM without phenol red to which foetal calf serum treated with dextran carbon is added at 3%. […] The experiments using the different retinoids are carried out sheltered from the light so as to avoid any isomerisation.
Certain properties of the retinoids have been determined using more developed cellular models. These models consist of cellular lineages transfected in a stable fashion by recombinant plasmids which place the expression of the gene of the luciferase under the control of different nuclear response elements. […] The tests carried out in duplicate are described below for each of these models.
The cellular lineages HRLN and HRL+N allow one to study the activation of an RARE by endogenic receptors using ligands at physiological concentrations. These lineages derive from HeLa cells transfected in a stable fashion by a reporter gene which places the expression of the gene of the luciferase under the control of a nuclear response element RARE (RARE3 -tk-Luc). The HeLa cells express all the known receptors of the retinoic acid (RARα,β,γ and RXRα,β,γ) with a predominance of RARα and RXRα. The response element RARE used for the HRLN cells corresponds to the sequence of the natural gene of the RARβ receptor (GGTTCAnnnnnAGTTCA). The HRL+N cells comprise the sequence GAGTGAnnnnnCGGTGA.
The HRL+N lineage allows one to visualise a co-activation of the RAR and RXR receptors at the level of the RAR-RXR hetero-dimer.

T-47D cells = experiment: Effect on oestrogen-induced proliferation of T-47D cells; format: cell-based, human
[2] = test system: ZR-75-1, T-47D, A549 and A-427 lineages; experiment: MTT test, tumour cell lines overall; format: cell-based, human
Procedure: This test is based on the mitochondrial reduction by living metabolically active cells of the MTT (3-(4,5-dimethylthiazol-2-yl)-2,5-diphenyltetrazolium bromide) of yellowish colour into a blue coloured product, formazan. The quantity of formazan obtained is directly proportional to the number of living cells. After incubation of the cells for 24 hours in microplates with 96 flat bottomed wells, the culture medium is replaced by 100 μl of fresh culture medium containing the drug to be tested.
The microplates are then incubated for 3 hours at 37° C. and centrifuged for 10 minutes at 400 g (GPR centrifuge, Beckman). The MTT solution is replaced by 100 μl of dimethylsulphoxide (Merck). The microplates are agitated (Vari-Shaker, Dynatech) for 10 minutes.
In the microplates, the control cells like the treated cells were incubated in a medium without the compounds to be tested for 24 hours. The control cells are incubated in a medium without a drug throughout the whole experiment, while the treated cells are incubated in different media. These media contain the molecule to be tested at various concentrations: 10^-8 M, 10^-6 M and 10^-4 M. All the tests are carried out in 6 duplicates.

[3] = test system: ZR-75-1 human mammary cancer cells; experiment: MTT test, proliferation of ZR-75-1; format: cell-based
Outline: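 Cells grown at 37° C in MEM/5% FCS were plated for 24 h, then treated at 10^-8, 10^-6 or 10^-4 M. Each condition was run in 6 duplicates.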

C/C(=C/c1ccc2c(c1)C(C)(C)CCC2(C)C)c1ccc(-c2nnn[nH]2)cc1 [CB92834]
RAR/RXR activity profile (in words) (RAR and RXR receptors): RXR specific activity | RAR-ERcassette RARβ transactivation (RARβ-ERcassette; 10^-6 M): 43% | RAR-ERcassette RARβ transactivation (RARβ-ERcassette; 10^-7 M): 36% | RAR-ERcassette RARβ transactivation (RARβ-ERcassette; 10^-8 M): 0% | HRL+N transactivation (in words) [1]: weak transactivation, less than that of TTNPB; also recorded: with a specific RAR agonist induces a stronger transactivation than that observed for each compound tested separately; also recorded: over-activation by CB92834 of the transactivation induced by a selective RAR agonist on the HRL+N lineage | Emax ([1]; Homo sapiens, HeLa, read-out: HRL+N transactivation, E max (Table 27)): 42% | activity at 1 µM (T-47D cells; Homo sapiens, T47D, 168 h, 10^-6 M, 100% = E2 10^-9 M, 7 days, read-out: growth of T-47D cells): 94% | effect on oestrogen-induced growth, T-47D (in words) (T-47D cells; estradiol 10^-9 M): inactive on the oestrogen-induced growth | inhibition of the cellular lineages (in words) [2]: as active on the MTT test as the reference products tested; also recorded: more active on the oestrogen-sensitive lineages such as the mammary lineages ZR-75-1 and T-47D than on the pulmonary lineages | activity at 100 µM ([3]; Homo sapiens, ZR-75-1, 10^-4 M, 72 h, control = 100%, read-out: level of proliferation): 18.7% | activity at 1 µM ([3]; Homo sapiens, ZR-75-1, 10^-6 M, 72 h, control = 100%, read-out: level of proliferation): 39.9% | activity at 0.01 µM ([3]; Homo sapiens, ZR-75-1, 10^-8 M, 72 h, control = 100%, read-out: level of proliferation): 27.9% | effect on cellular increase, ZR-75-1 (in words) ([3]; MTT test): strongly inhibitive activity on the cellular increase of the two lineages
